Experimental data published in ChEMBL document CHEMBL4229454, “Structural optimization and in vitro profiling of N-phenylbenzamide-based farnesoid X receptor antagonists” (Bioorg Med Chem, 2018).
Converted amounts (≈) assume the structure as drawn. The source made the active and inactive calls. The rule behind the calls is not given here.

Assays:
[1] = target: Luciferin 4-monooxygenase (Photinus pyralis) (UniProt P08659); test: Inhibition of GW4064-induced firefly luciferase expression in HeLa cells co-expressing full length human FXR, BSEP-pGL3 and pSG5-hRXR at 1 uM treated at 23 hrs post GW4064 treatment for 1 hr by luminescence assay; assay type: cell-based
HepG2 [2] = test: Cytotoxicity against human HepG2 cells assessed as reduction in cell viability up to 100 uM after 48 hrs by WST1 assay; assay type: cell-based; details: hepg2, 48 h
HeLa = test: Cytotoxicity against human HeLa cells co-expressing full length human FXR, BSEP-pGL3 and pSG5-hRXR assessed as reduction in cell viability up to 50 uM after 48 hrs by WST1 assay; assay type: ADME, cell-based
HEK293 = test: Cytotoxicity against HEK293 cells assessed as reduction in cell viability at >10 uM after 48 hrs by WST1 assay; assay type: cell-based; details: human, hek293, 48 h
[3] = Metabolic stability in Sprague-Dawley rat liver microsomes assessed as parent compound remaining at 10 uM in presence of NADPH measured immediately by HPLC analysis; assay type: ADME, microsome; details: read-out: Stability
[4] = Metabolic stability in Sprague-Dawley rat liver microsomes assessed as parent compound remaining at 10 uM in presence of NADPH measured after 15 mins by HPLC analysis; assay type: ADME, microsome; details: read-out: Stability
[5] = Metabolic stability in Sprague-Dawley rat liver microsomes assessed as parent compound remaining at 10 uM in presence of NADPH measured after 30 mins by HPLC analysis; assay type: ADME, microsome; details: read-out: Stability
[6] = Metabolic stability in Sprague-Dawley rat liver microsomes assessed as parent compound remaining at 10 uM in presence of NADPH measured after 60 mins by HPLC analysis; assay type: ADME, microsome; details: read-out: Stability
[7] = Aqueous solubility of the compound; assay type: physicochemical; details: water
[8] = target: T1, Peroxisome proliferator-activated receptor gamma (Homo sapiens) (UniProt P37231); test: Agonist activity at GAL4-fused human PPARgamma LBD expressed in HEK293T cells at 1 uM after 12 to 14 hrs by luciferase reporter gene assay; assay type: cell-based
T1 sequence (whole entry): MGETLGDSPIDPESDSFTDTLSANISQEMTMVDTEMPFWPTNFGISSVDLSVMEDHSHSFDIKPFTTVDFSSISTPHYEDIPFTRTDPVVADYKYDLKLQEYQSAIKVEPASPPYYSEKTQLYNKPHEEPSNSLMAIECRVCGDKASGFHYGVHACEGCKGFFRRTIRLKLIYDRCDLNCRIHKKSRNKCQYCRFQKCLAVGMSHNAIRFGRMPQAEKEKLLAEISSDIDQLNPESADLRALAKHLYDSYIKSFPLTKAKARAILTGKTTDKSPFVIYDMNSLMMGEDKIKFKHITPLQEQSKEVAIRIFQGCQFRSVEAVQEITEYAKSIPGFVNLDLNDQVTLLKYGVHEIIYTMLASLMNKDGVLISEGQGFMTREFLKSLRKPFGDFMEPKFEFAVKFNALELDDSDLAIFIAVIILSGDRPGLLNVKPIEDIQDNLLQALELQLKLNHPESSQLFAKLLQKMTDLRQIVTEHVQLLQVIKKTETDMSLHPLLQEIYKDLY

[9] = target: T2, Nuclear receptor subfamily 1 group I member 3 (Homo sapiens, UniProt Q14994); test: Agonist activity at GAL4-fused human CAR LBD expressed in HEK293T cells at 1 uM after 12 to 14 hrs by luciferase reporter gene assay; assay type: cell-based
T2 sequence (Q14994 whole entry): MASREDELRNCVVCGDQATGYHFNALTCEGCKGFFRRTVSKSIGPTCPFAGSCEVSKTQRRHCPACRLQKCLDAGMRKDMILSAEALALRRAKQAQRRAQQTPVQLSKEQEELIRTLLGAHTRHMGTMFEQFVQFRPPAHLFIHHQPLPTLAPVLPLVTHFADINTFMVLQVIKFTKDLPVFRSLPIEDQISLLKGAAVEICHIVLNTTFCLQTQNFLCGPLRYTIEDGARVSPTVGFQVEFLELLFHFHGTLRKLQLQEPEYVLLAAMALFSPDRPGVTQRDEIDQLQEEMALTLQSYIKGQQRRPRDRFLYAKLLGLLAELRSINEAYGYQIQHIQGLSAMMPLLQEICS

[10] = target: T3, Retinoic acid receptor RXR-alpha (Homo sapiens) (UniProt P19793); test: Agonist activity at GAL4-fused human RXRalpha LBD expressed in HEK293T cells at 1 uM after 12 to 14 hrs by luciferase reporter gene assay; assay type: cell-based
T3 sequence (whole entry): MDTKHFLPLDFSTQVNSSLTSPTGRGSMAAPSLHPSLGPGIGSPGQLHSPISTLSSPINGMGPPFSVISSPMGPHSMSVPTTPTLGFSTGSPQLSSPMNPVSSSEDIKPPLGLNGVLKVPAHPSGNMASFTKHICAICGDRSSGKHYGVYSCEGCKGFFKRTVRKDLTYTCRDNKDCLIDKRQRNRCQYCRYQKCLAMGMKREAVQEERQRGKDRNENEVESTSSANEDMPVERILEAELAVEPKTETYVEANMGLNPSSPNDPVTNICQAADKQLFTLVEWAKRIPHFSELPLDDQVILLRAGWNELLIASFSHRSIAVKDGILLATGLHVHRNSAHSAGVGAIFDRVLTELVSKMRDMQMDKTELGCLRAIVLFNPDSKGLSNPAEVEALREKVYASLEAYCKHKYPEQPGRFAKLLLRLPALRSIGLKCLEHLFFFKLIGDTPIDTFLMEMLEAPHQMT

[11] = target: T4, Oxysterols receptor LXR-alpha (Homo sapiens) (UniProt Q13133); test: Agonist activity at GAL4-fused human LXRalpha LBD expressed in HEK293T cells at 1 uM after 12 to 14 hrs by luciferase reporter gene assay; assay type: cell-based
T4 sequence (whole entry): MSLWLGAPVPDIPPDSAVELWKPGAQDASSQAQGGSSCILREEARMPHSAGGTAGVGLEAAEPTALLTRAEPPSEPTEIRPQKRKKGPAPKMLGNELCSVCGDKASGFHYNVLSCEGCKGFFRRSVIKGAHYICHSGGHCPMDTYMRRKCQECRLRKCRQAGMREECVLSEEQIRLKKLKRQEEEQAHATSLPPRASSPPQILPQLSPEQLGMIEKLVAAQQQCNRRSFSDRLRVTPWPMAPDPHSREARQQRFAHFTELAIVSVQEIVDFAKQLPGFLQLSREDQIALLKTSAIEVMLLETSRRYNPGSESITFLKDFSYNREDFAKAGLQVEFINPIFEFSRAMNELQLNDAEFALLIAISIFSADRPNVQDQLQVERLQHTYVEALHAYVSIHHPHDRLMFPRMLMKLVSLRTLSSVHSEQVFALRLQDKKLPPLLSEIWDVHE

[12] = target: T1, Peroxisome proliferator-activated receptor gamma (Homo sapiens); test: Antagonist activity at GAL4-fused human PPARgamma LBD expressed in HEK293T cells at 1 uM after 12 to 14 hrs by luciferase reporter gene assay; assay type: cell-based
[13] = target: T2, Nuclear receptor subfamily 1 group I member 3; test: Antagonist activity at GAL4-fused human CAR LBD expressed in HEK293T cells at 1 uM after 12 to 14 hrs by luciferase reporter gene assay; assay type: cell-based
[14] = target: T3, Retinoic acid receptor RXR-alpha (Homo sapiens); test: Antagonist activity at GAL4-fused human RXRalpha LBD expressed in HEK293T cells at 1 uM after 12 to 14 hrs by luciferase reporter gene assay; assay type: cell-based
[15] = target: T4, Oxysterols receptor LXR-alpha (Homo sapiens); test: Antagonist activity at GAL4-fused human LXRalpha LBD expressed in HEK293T cells at 1 uM after 12 to 14 hrs by luciferase reporter gene assay; assay type: cell-based
[16] = target: T5, Bile acid receptor (Homo sapiens) (UniProt Q96RI1); test: Antagonist activity at full length human FXR expressed in HeLa cells co-expressing BSEP-pGL3/pSG5-hRXR assessed as inhibition of GW4064-induced receptor activation at 30 uM after 24 hrs by luciferase reporter gene assay; assay type: cell-based
T5 sequence (whole entry): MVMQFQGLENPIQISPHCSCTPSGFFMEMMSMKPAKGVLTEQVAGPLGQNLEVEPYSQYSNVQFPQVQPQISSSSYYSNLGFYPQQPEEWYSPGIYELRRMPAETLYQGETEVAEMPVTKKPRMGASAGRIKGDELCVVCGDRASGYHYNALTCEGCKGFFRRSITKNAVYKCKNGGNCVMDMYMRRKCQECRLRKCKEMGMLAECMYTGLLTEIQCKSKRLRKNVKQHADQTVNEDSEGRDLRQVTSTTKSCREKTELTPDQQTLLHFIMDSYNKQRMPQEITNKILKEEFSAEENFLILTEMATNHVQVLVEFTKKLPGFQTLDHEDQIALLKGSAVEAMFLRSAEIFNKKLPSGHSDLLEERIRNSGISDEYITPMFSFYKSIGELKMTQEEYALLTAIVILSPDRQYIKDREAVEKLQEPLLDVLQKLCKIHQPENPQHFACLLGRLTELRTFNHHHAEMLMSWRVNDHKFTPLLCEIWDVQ

HepG2 [17] = test: Cytotoxicity against human HepG2 cells assessed as reduction in cell viability at 100 uM after 48 hrs by WST1 assay relative to control; assay type: cell-based; details: hepg2, 48 h

Sequence of Luciferin 4-monooxygenase (Photinus pyralis) (P08659 whole entry): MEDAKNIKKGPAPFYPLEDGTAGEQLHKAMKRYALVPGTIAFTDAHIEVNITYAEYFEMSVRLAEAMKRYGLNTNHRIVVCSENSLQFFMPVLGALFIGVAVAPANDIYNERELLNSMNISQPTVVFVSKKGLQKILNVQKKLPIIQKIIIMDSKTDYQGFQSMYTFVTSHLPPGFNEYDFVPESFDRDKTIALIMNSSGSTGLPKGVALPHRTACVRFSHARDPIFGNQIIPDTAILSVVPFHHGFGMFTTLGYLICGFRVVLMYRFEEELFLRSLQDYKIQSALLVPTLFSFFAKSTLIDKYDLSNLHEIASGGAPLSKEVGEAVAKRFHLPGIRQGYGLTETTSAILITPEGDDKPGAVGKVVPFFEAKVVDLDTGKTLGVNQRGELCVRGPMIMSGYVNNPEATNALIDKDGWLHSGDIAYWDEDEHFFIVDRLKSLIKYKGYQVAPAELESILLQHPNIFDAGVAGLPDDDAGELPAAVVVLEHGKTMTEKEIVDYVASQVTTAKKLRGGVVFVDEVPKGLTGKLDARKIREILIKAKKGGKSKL

**Q.** For `COc1cc(C(C)(C)C)ccc1C(=O)Nc1ccc(CC(=O)O)cc1`, which inhibition [1] is on record?
**A.** Its inhibition is “inactive”.

**Q.** And the Activity (HepG2 [2])?
**A.** Its Activity is “Non-Toxic”.

**Q.** What about the Activity (HeLa) of the same molecule?
**A.** The Activity was “Non-Toxic”.

**Q.** And the Activity (HEK293)?
**A.** Its Activity is “Non-Toxic”.

**Q.** And the remaining at 0 min, 10 µM [3]?
**A.** The remaining at 0 min, 10 µM was 100%.

**Q.** And the remaining at 0.25 h, 10 µM [4]?
**A.** The remaining at 0.25 h, 10 µM was 98%.

**Q.** What about the remaining at 0.5 h, 10 µM [5] of the same molecule?
**A.** The remaining at 0.5 h, 10 µM was 96%.

**Q.** And the remaining at 1 h, 10 µM [6]?
**A.** Its remaining at 1 h, 10 µM is 97%.

**Q.** What about the solubility [7] of the same molecule?
**A.** The solubility was 16 µg/mL (≈ 46.9 µM).

**Q.** What about the Activity [8] of the same molecule?
**A.** The Activity was “inactive”.

**Q.** What about the Activity [9] of the same molecule?
**A.** Its Activity is “Not Active”.

**Q.** What about the Activity [10] of the same molecule?
**A.** Its Activity is “inactive”.

**Q.** What about the Activity [11] of the same molecule?
**A.** The Activity was “inactive”.

**Q.** What about the inhibition [12] of the same molecule?
**A.** The inhibition was “inactive”.

**Q.** And the “inhibition (INH)” value [13]?
**A.** Its value is “Not Active”.

**Q.** What about the inhibition [14] of the same molecule?
**A.** Its inhibition is “inactive”.

**Q.** And the inhibition [15]?
**A.** Its inhibition is “inactive”.

**Q.** For `O=C(O)Cc1ccc(NC(=O)c2ccccc2-c2ccccc2)cc1`, which inhibition [16] is on record?
**A.** Its inhibition is “inactive”.

**Q.** Which Activity (HepG2 [17]) does the source give for `CC(C)(C)c1ccc(C(=O)Nc2ccccc2CC(=O)O)cc1` here?
**A.** Its Activity is 118%.

**Q.** With `COc1cc(C(=O)Nc2ccc(CC(=O)O)cc2)ccc1C(C)(C)C` as the molecule, how does the Activity (HepG2 [17]) read?
**A.** Its Activity is 112%.

**Q.** For `CC(C)(C)c1ccc(C(=O)Nc2cccc(CC(=O)O)c2)cc1`, which inhibition [1] is on record?
**A.** Its inhibition is “inactive”.

**Q.** For `COc1ccc(C(C)(C)C)cc1C(=O)Nc1ccc(CC(=O)O)cc1`, which inhibition [16] is on record?
**A.** The inhibition was “inactive”.
